Assay results as given in patent US7906106B2, “In vivo cell trafficking” (General Electric Company, priority 2007, dated 2011).

System: granuloma-derived nucleated cells
Assay: FACS analysis to determine cell viability (7-AAD) after staining with Cy7.5 NHS-ester
Assay type: cell-based, mouse
Conditions: granuloma-derived nucleated cells stained with 1 μg dye in 10 ml PBS, on ice 20 minutes
Protocol: Cell Staining. 1 μg of Cy 7.5-NHS ester was mixed in 10 ml of PBS. The cells are resuspended in the buffer and left on ice for 20 minutes. Cells were washed three times in PBS and the cell pellet is placed under Optix scanner to confirm cell staining. The cells were resuspended in PBS and 100 μl of the cell suspension (containing 0.5×10^6 cells/100 μl) was injected via the tail vein. The stained cell pellet generated signal that was detected by the scanner.
FACS Analysis to Determine Cell Viability. Stained cells were washed three times in PBS and resuspended in 100 μl PBS. The cell suspension was incubated with 20 μl of 7-AAD for 20 minutes at room temperature. The cells are washed once in PBS and resuspended in 500 μl of PBS, then analyzed in FACS for viability.
FACS Analysis for Cellular Markers. The cells were stained with cell markers for leukocytes (CD45) and monocyte/macrophage (CD 11 b). Both CD11b and CD45 antibodies were purchased from Miltenyi Biotec and stained following vendors instructions. Thus, 10 μl of CD11b PE antibody and 10 μl CD45 FITC were incubated with 1×10^6 cells for 20 minutes. The cells were washed in PBS, resuspend in 0.5 mL PBS, and run on Flow Cytometer (Beckman Coulter FC500 MPL). The cells were viable after staining with Cye7.5 NHS-ester and 72% of cell population in the suspension were positive for CD45 and CD11b.

Cy7.5-NHS ester [Cye7.5 NHS-ester]
cell viability after staining: viable
